Experimental data as given in patent US9782464B2, “Methods and compositions for inhibiting diseases of the central nervous system” (Board of Regents of the University of Nebraska, priority 2008, dated 2017).

Key:
[1] = test system: B6 SOD1 Tg mice; test: COP-1 immunization of B6 SOD1 Tg mice
[2] = test system: MES23.5 cells; test: Cathepsin B inhibition and neurotoxicity, microglial supernatants on MES23.5 cells; assay type: cell-based; details: inhibitor 1 μM, N-α-syn 100 nM
Protocol: MES 23.5 cells were cultured in 75-cm^2 flasks in DMEM/F12 with 15 mM HEPES (Invitrogen) containing N2 supplement (Invitrogen), 100 U/ml of penicillin, 100 μg/ml streptomycin, and 5% FBS. MES23.5 cells is a cell line derived using somatic cell fusion of rat embryonic mesencephalon cells and the murine neuroblastoma-glioma cell line N18TG2 that produce dopamine and express tyrosine hydroxylase (Crawford et al. (1992) J. Neuroscience 12:3392-3398). Cells were grown to 80% confluence then plated at a density of 10×10^4 cells on sterile glass coverslips. Microglia were plated in 6 well plates and incubated for 1 hour with or without 1 μM of cathepsin B inhibitors, CA-074 [cell impermeable] or CA-074 Me [cell permeable] (Sigma), in a 37° C., 5% CO2 incubator to inhibit residual cathepsin B expression (Gan et al. (2004) J. Biol. Chem., 279:5565-5572). […] MES 23.5 cell viability was assessed using the Live/Dead cytotoxicity assay (Invitrogen) as previously described. Live cells were distinguished by the uptake of calcein AM to acquire a green fluorescence [excitation/emission (ex/em) 495/515 nm], while dead cells acquired a red fluorescence (ex/em 495/635 nm) due to the uptake of ethidium homodimer-1 (EthD-1). Cell enumerations were performed using fluorescence microscopy (200× magnification, n=6 wells per group, 3 frames per well).

glatiramer acetate [COP-1]
increase of mean age of survival compared to PBS controls ([1]; 75 μg s.c. every other week): 6.1% | increase of mean age of survival compared to PBS controls ([1]; 75 μg s.c. weekly): 9.9%

CCCNC(=O)[C@H]1O[C@@H]1C(=O)N[C@H](C(=O)N1CCC[C@H]1C(=O)O)[C@@H](C)CC [CA-074]
protection of DA cells v. N-α-syn alone [2]: 53%
